# Columns and labels:
# [1] = test system: Human Heme Oxygenase-1 (HMOX-1); experiment: ELISA assay to measure human heme oxygenase-1 (HMOX-1) in HepG2 lysate; format: cell-based; conditions: for EC50: human HMOX1 protein level in HepG2 lysate, * = average of 2 or more EC50 determinations, NA = Not Active, read-out: EC50
# Method: Example 143. ELISA Assay to Measure Human Heme Oxygenase-1 (HMOX-1) in HepG2 lysate
# Reagents and Technical Notes:
# ELISA capture antibody, standard HO-1, detection antibody and streptavidin HRP were supplied in the DuoSet IC Human total HO-1 ELISA from R&D systems (DYC3776-2). The substrate cocktail was KPL LumiGLO reserve Chemiluminescent Substrate (54-71-00). PBS was Corning Cellgro Cell Culture (21-040-CV). 10×PBS+0.05% tween20 (PBST) was from KPL.
# All incubations of the plate were at room temperature (20° C.) in a closed drawer.
# The ELISA plate was processed manually. All loadings were with a multichannel pipet. Plates were emptied by shaking into the sink and tapping onto paper towels to remove any remaining reagent. Plate washing was accomplished by loading all wells with PBS+0.05% tween20 (PBST) using a squirt bottle, shaking the PBST out and tapping the plate onto paper towels.
# Preparation of the ELISA Plate:
# • 1. anti-HO-1 capture antibody was 1440 μg/ml after reconstitution in PBS. This antibody was diluted to 8 μg/ml in PBS and 50 μl per well was added to a 384 well greiner “lumitrac 200” plate. Incubated overnight. • 2. The plate was emptied and 100 μl PBS+1% BSA added to all wells. Incubated 90 minutes at room temperature. Preparation of HepG2 Lysate: • 1. Cells were cultured in a 96-well tissue culture plate washed with PBS and then the plate frozen at −70° C. overnight. Plates were allowed to warm to ice temperature in an ice bucket. 20 μl of PBS, 0.5% Triton X100, 1 mM EDTA with 1×HALT™ protease inhibitors was added to each well and the plates incubated on ice for 1 hour. • 2. The lysates were frozen at −20° C. overnight. Measurement of HMOX1 (“HO-1”) • 1. In a polypropylene 384 well plate, human HO-1 (after reconstitution in PBS+0.5% Triton+1 mM EDTA) was serially diluted from 20 ng/ml 2-fold in PBS+0.5% triton-X100, 1 mM EDTA to make a 12-point standard curve including a zero point. • 2. In a polypropylene 96 well plate, HepG2 lysate was diluted 1 to 20 in Diluent #4 from DUOSET kit in which the assay standard is also diluted. • 3. The PBS+1% BSA was emptied from the ELISA plate and 30 μl of all samples and standards were added (duplicates recommended). The plate was incubated 90 minutes. • 4. Emptied plate and washed 4 times with PBST. • 5. Diluted HO-1 detection antibody to 200 ng/ml in PBS+1% BSA and added 30 μl to all wells. Incubated 90 minutes. • 6. Emptied plate and washed 4 times with PBST. • 7. Added 30 μl streptavidin HRP at 1/200 in PBS+1% BSA (stock streptavidin concentration not specified) to all wells. Incubated 30 minutes. • 8. Emptied plate and washed 4 times with PBST. • 9. Diluted Lumiglo reserve reagent two parts buffer to one part lumiglo substrate. Added 30 μl to all wells. Incubated 5 minutes. • 10. Measured chemiluminescence on spectramax M5 using 150 ms integration.
# Table 1 below lists EC50 and fold changes of human HMOX1 protein levels relative to DMSO control upon treatment with representative compounds.
# Kinetic solubility = format: physicochemical; conditions: Dulbecco's phosphate buffer saline (DPBS), aqueous buffer, kinetic from dmso stock, DPBS pH 7.4, 25° C., 200 μM test compound
# Method: Example 144. Kinetic Solubility
# 10 μL of 10 mM DMSO stock solution were aliquotted to 490 μL of DMSO solution and separately 490 μL of Dulbecco's phosphate buffer saline, DPBS, pH 7.4 solution in 1.2 mL 96-well plates in duplicate. Final concentration was 200 μM of the test compound. Samples were incubated at 25° C. with shaking at 200 rpm for 16 h. Samples were centrifuged at 3500 rpm for 20 min at 25° C., and supernatant was submitted for HPLC analysis.
# Kinetic solubility was measured using the following equation: […]
SMILES,EC50 [1],solubility at 16 h (Kinetic solubility),"Maximum Fold induction ([1]; fold change of human HMOX1 protein level relative to DMSO control, HepG2)"
"Cn1c(Nc2nc3ccccc3o2)nc2cc(C(=O)C(F)(F)F)ccc21 [Example 139, 1-(2-(benzo[d]oxazol-2-ylamino)-1-methyl-1H-benzo[d]imidazol-5-yl)-2,2,2-trifluoroethan-1-one]",2600 nM,< 2 µM,
"Cn1c(Nc2nc3cc(C(F)(F)F)ccc3o2)nc2cc(C(=O)NCCOCCO)ccc21 [Example 43, N-(2-(2-hydroxyethoxy)ethyl)-1-methyl-2-((5-(trifluoromethyl)benzo[d]oxazol-2-yl)amino)-1H-benzo[d]imidazole-5-carboxamide]",1300 nM,8 µM,
"COCCNC(=O)c1ccc2c(c1)nc(Nc1nc3ccc(OC(F)(F)F)cc3o1)n2CC1(O)COC1 [Example 94, 1-((3-hydroxyoxetan-3-yl)methyl)-N-(2-methoxyethyl)-2-((6-(trifluoromethoxy)benzo[d]oxazol-2-yl)amino)-1H-benzo[d]imidazole-5-carboxamide]",1300 nM,0.3 µM,
"COCCNC(=O)c1cc2nc(Nc3nc4ccc(OC(F)(F)F)cc4o3)n(C)c2cc1F [Example 71, 6-fluoro-N-(2-methoxyethyl)-1-methyl-2-((6-(trifluoromethoxy)benzo[d]oxazol-2-yl)amino)-1H-benzo[d]imidazole-5-carboxamide]",730 nM,0.3 µM,
"CN(C)CC(=O)NCCNC(=O)c1ccc2c(c1)nc(Nc1nc3ccc(OC(F)(F)F)cc3o1)n2C [Example 49, N-(2-(2-(dimethylamino)acetamido)ethyl)-1-methyl-2-((6-(trifluoromethoxy)benzo[d]oxazol-2-yl)amino)-1H-benzo[d]imidazole-5-carboxamide]",800 nM,< 2 µM,
"CC(O)CONC(=O)c1ccc2c(c1)nc(Nc1nc3ccccc3o1)n2C (stereo not drawn) [Example 120, 2-(benzo[d]oxazol-2-ylamino)-N-(2-hydroxypropoxy)-1-methyl-1H-benzo[d]imidazole-5-carboxamide]",2000 nM,6.5 µM,
"Cn1c(Nc2nc3ccc(N4CCOCC4)cc3o2)nc2cc(C(=O)NCCOCCO)ccc21 [Example 136, N-(2-(2-hydroxyethoxy)ethyl)-1-methyl-2-((6-morpholinobenzo[d]oxazol-2-yl)amino)-1H-benzo[d]imidazole-5-carboxamide]",2900 nM,10.6 µM,
"Cn1c(Nc2nc3ccccc3o2)nc2cc(C(=O)NCCOCCO)c(F)cc21 [Example 72, 2-(benzo[d]oxazol-2-ylamino)-6-fluoro-N-(2-(2-hydroxyethoxy)ethyl)-1-methyl-1H-benzo[d]imidazole-5-carboxamide]",1100 nM,2.7 µM,
"Cn1c(Nc2nc3cc(F)c(C(F)(F)F)cc3o2)nc2cc(C(=O)NOCCO)ccc21 [Example 130, 2-((5-fluoro-6-(trifluoromethyl)benzo[d]oxazol-2-yl)amino)-N-(2-hydroxyethoxy)-1-methyl-1H-benzo[d]imidazole-5-carboxamide]",740 nM,< 2 µM,
"COCCNC(=O)c1ccc2c(c1)nc(Nc1nc3cc(F)ccc3o1)n2C [Example 67, 2-((5-fluorobenzo[d]oxazol-2-yl)amino)-N-(2-methoxyethyl)-1-methyl-1H-benzo[d]imidazole-5-carboxamide]",910 nM,< 5 µM,
"COCCNC(=O)c1ccc2c(c1)nc(Nc1nc3ccc(C(C)C)cc3o1)n2C [Example 60, 2-((6-isopropylbenzo[d]oxazol-2-yl)amino)-N-(2-methoxyethyl)-1-methyl-1H-benzo[d]imidazole-5-carboxamide]",700 nM,0.9 µM,
"COCCNC(=O)c1ccc2c(c1)nc(Nc1nc3cccnc3o1)n2C [Example 109, N-(2-methoxyethyl)-1-methyl-2-(oxazolo[5,4-b]pyridin-2-ylamino)-1H-benzo[d]imidazole-5-carboxamide]",6100 nM,7.4 µM,
"COCCNC(=O)c1ccc2c(c1)nc(Nc1nc3ccc(OCC(F)(F)F)cc3o1)n2C [Example 99, N-(2-methoxyethyl)-1-methyl-2-((6-(2,2,2-trifluoroethoxy)benzo[d]oxazol-2-yl)amino)-1H-benzo[d]imidazole-5-carboxamide]",920 nM,0.4 µM,
"CN(C)CC(=O)NCCNC(=O)c1ccc2c(c1)nc(Nc1nc3ccc(C(F)(F)F)cc3o1)n2C [Example 40, N-(2-(2-(dimethylamino)acetamido)ethyl)-1-methyl-2-((6-(trifluoromethyl)benzo[d]oxazol-2-yl)amino)-1H-benzo[d]imidazole-5-carboxamide]",690 nM,0.5 µM,
"Cn1c(Nc2nc3ccc(OCCO)cc3o2)nc2cc(C(=O)NCCOCCO)ccc21 [Example 104, 2-((6-(2-hydroxyethoxy)benzo[d]oxazol-2-yl)amino)-N-(2-(2-hydroxyethoxy)ethyl)-1-methyl-1H-benzo[d]imidazole-5-carboxamide]",3700 nM,6.6 µM,
"Cn1c(Nc2nc3ccc(OC(F)(F)F)cc3o2)nc2cc(C(=O)NC3COC3)ccc21 [Example 51, 1-methyl-N-(oxetan-3-yl)-2-((6-(trifluoromethoxy)benzo[d]oxazol-2-yl)amino)-1H-benzo[d]imidazole-5-carboxamide]",1400 nM,< 2 µM,
"COCCNC(=O)c1ccc2c(c1)nc(Nc1nc3ccc(OCCO)cc3o1)n2C [Example 102, 2-((6-(2-hydroxyethoxy)benzo[d]oxazol-2-yl)amino)-N-(2-methoxyethyl)-1-methyl-1H-benzo[d]imidazole-5-carboxamide]",1300 nM,5.3 µM,
"Cn1c(Nc2nc3ccc(C(F)(F)F)cc3o2)nc2cc(C(=O)NCCOCC(C)(C)O)ccc21 [Example 42, N-(2-(2-hydroxy-2-methylpropoxy)ethyl)-1-methyl-2-((6-(trifluoromethyl)benzo[d]oxazol-2-yl)amino)-1H-benzo[d]imidazole-5-carboxamide]",2300 nM,3.6 µM,29 fold
"Cn1c(Nc2nc3ccc(OC(F)(F)F)cc3o2)nc2cc(C(=O)NC(CO)CO)ccc21 [Example 48, N-(1,3-dihydroxypropan-2-yl)-1-methyl-2-((6-(trifluoromethoxy)benzo[d]oxazol-2-yl)amino)-1H-benzo[d]imidazole-5-carboxamide]",2000 nM,3.9 µM,
"Cn1c(Nc2nc3ccc(-c4cscn4)cc3o2)nc2cc(C(=O)NCCOCCO)ccc21 [Example 134, N-(2-(2-hydroxyethoxy)ethyl)-1-methyl-2-((6-(thiazol-4-yl)benzo[d]oxazol-2-yl)amino)-1H-benzo[d]imidazole-5-carboxamide]",1400 nM,< 2 µM,
"Cn1c(Nc2nc3ccccc3o2)nc2cc(C(N)C(F)(F)F)ccc21 (stereo not drawn) [Example 141, N-(5-(1-amino-2,2,2-trifluoroethyl)-1-methyl-1H-benzo[d]imidazol-2-yl)benzo[d]oxazol-2-amine]",3600 nM,9 µM,
"Cn1c(Nc2nc3ccc(OC(F)(F)F)cc3o2)nc2cc(C(=O)NC(CO)(CO)CO)ccc21 [Example 47, N-(1,3-dihydroxy-2-(hydroxymethyl)propan-2-yl)-1-methyl-2-((6-(trifluoromethoxy)benzo[d]oxazol-2-yl)amino)-1H-benzo[d]imidazole-5-carboxamide]",1600 nM,< 2 µM,
